We go through 16 molecules from ChEMBL document CHEMBL1201862, “PubChem BioAssay data set” (2004).

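Each compound was tested at five concentrations against cells in 96-well plates for 48 hours. GI50 = concentration required for 50% inhibition of growth.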 The source made the active and inactive calls. No stated cut-off is given here; in the data, active = GI50 up to about 1.1 µM and inactive = higher. Bounds are passed on as bounds.

Some test systems named below: XF498; M19-MEL; SNB-78; LXFL 529; DLD-1; KM-20L2; HOP-18; RXF 631; DMS-114.
Holding throughout (experiment): DTP human tumour cell line panel, 48 h

For `CCCCCCCCOCC(O)CO` (configuration not stated), the GI50 is 45.9 µM (inactive) in the assay with XF498; > 100 µM (inactive) with M19-MEL; > 100 µM (inactive) in the assay with SNB-78; > 100 µM (inactive) in the assay with LXFL 529; > 100 µM (inactive) in the assay on DLD-1; > 100 µM (inactive) with KM-20L2. Also, the GI50 in the assay with HOP-18, with RXF 631 and in the assay with DMS-114 was > 100 µM (inactive) throughout.
Turning to `CCOC(=O)CC[C@@H](NC(=O)c1ccc(N[C@@H]2c3cc4c(cc3C(c3cc(OC)c(O)c(OC)c3)C3C(=O)OC[C@@H]32)OCO4)cc1)C(=O)OCC` (some centres not stated), the GI50 with M19-MEL is 0.0608 µM (active); with SNB-78 it was 0.859 µM (active); with LXFL 529, 7.23 µM (inactive); in the assay with DLD-1, 0.123 µM (active); in the assay on KM-20L2, 0.0404 µM (active); in the assay with HOP-18, 0.249 µM (active).
As for `CC(C)(CN1CCCCC1)C(=O)/C=C/c1ccc(Cl)cc1`, the GI50 with M19-MEL is 6.76 µM (inactive); with SNB-78 it was 3.24 µM (inactive); in the assay on LXFL 529 it was 2.54 µM (inactive); in the assay on DLD-1 it was 4.49 µM (inactive); with KM-20L2, 2.36 µM (inactive); in the assay on HOP-18, 11.1 µM (inactive). The GI50 in the assay on RXF 631 was 9.29 µM (inactive); in the assay with DMS-114, 3.65 µM (inactive).
With `Cc1ccc(NC(=O)/C(=N/NC(=O)CC#N)C2C(=O)N(c3ccccc3)N=C2N)cc1C` (configuration not stated), the GI50 in the assay with XF498, with M19-MEL, in the assay on SNB-78, in the assay on LXFL 529, in the assay on DLD-1 and in the assay with KM-20L2 was > 100 µM (inactive) each time. In addition, the GI50 in the assay on HOP-18 and with DMS-114 was > 100 µM (inactive) throughout.
`C/C(=N/NS(=O)(=O)c1ccccc1)c1cccc[n+]1[O-]`: the GI50 in the assay with XF498, with M19-MEL, in the assay with SNB-78, with LXFL 529, in the assay on DLD-1 and with KM-20L2 was > 100 µM (inactive) in each case. Further, the GI50 in the assay on HOP-18, in the assay with RXF 631 and in the assay with DMS-114 was > 100 µM (inactive) in each case.
For the molecule `CC(C)C1(O)C(c2ccccc2)=C(c2ccccc2)C(c2ccccc2)=C1c1ccccc1`, the GI50 in the assay with XF498 is 2.96 µM (inactive); with SNB-78, 11.6 µM (inactive); in the assay on LXFL 529, 5.19 µM (inactive); in the assay on DLD-1, 5.87 µM (inactive); with KM-20L2, 8.32 µM (inactive); with HOP-18, 10.9 µM (inactive). Moreover, the GI50 in the assay with RXF 631 was 3.58 µM (inactive); with DMS-114 it was 3.4 µM (inactive).
Take `CCCCCCCCCCCCCCCCCC(=O)OCC(C[As](=O)(O)O)OC(=O)CCCCCCCCCCCCCCCCC` (configuration not stated): the GI50 was 23 µM (inactive) in the assay with XF498; > 100 µM (inactive) with M19-MEL; 20.4 µM (inactive) with SNB-78; 72.9 µM (inactive) in the assay on LXFL 529; 40 µM (inactive) in the assay on DLD-1; > 100 µM (inactive) with KM-20L2. Besides, the figures for the GI50 in the assay with HOP-18, with RXF 631 and in the assay with DMS-114 were > 100 µM (inactive), 36.1 µM (inactive) and 17.6 µM (inactive), respectively.
With `CC(=O)OC1(Sc2ccccc2)CC2[C@H]3COC(C)(C)O[C@H]3CC[C@@]2(C)CC1=O` (some centres not stated), the GI50 with XF498 was 19.2 µM (inactive); in the assay on M19-MEL it was 50.9 µM (inactive); with SNB-78, > 100 µM (inactive); in the assay with LXFL 529 it was 34.2 µM (inactive); with DLD-1, 65.2 µM (inactive); in the assay on KM-20L2, 37.5 µM (inactive). For the same molecule, the GI50 in the assay on RXF 631 was 14.4 µM (inactive); with DMS-114, 27 µM (inactive).
As to `COC(=O)n1c(CBr)c(Br)c2ccccc21`, the GI50 is 61.7 µM (inactive) in the assay with M19-MEL, 41.5 µM (inactive) with DLD-1, > 100 µM (inactive) in the assay with KM-20L2 and 36.7 µM (inactive) in the assay with DMS-114.
Consider `CC1O[C@@H]2CCCCC(=O)[C@]2(C)[C@H]1C` (some centres not stated), for which the GI50 in the assay with XF498, in the assay on M19-MEL, in the assay on SNB-78, in the assay on LXFL 529, in the assay with DLD-1 and with KM-20L2 was > 100 µM (inactive) in each case. In addition, the GI50 in the assay on HOP-18, in the assay on RXF 631 and with DMS-114 was > 100 µM (inactive) in each case.
Take `Cc1cc(C)c2c(c1)Nc1ccccc1P2c1ccccc1` (configuration not stated): the GI50 with XF498 is 4.86 µM (inactive); with SNB-78, 41.8 µM (inactive); in the assay with LXFL 529 it was 29.2 µM (inactive); in the assay with DLD-1, 23.5 µM (inactive); in the assay on KM-20L2, 30.6 µM (inactive); with DMS-114 it was > 100 µM (inactive).
As for `CC12C3CC4C5CC(C(C53)[C@@H]1NCc1ccccc1)C42` (some centres not stated), the GI50 in the assay with XF498 was > 100 µM (inactive); in the assay with SNB-78, > 100 µM (inactive); with LXFL 529, > 100 µM (inactive); with DLD-1, > 100 µM (inactive); in the assay on KM-20L2, 23.2 µM (inactive); in the assay on HOP-18, > 100 µM (inactive). Moreover, the values for the GI50 in the assay with RXF 631 and with DMS-114 were 84.3 µM (inactive) and > 100 µM (inactive), respectively.
`O=C(Cc1nc2sc3c(c2c(=O)[nH]1)CCCC3)Nc1ccccc1`: the GI50 in the assay with XF498, in the assay on M19-MEL, in the assay on LXFL 529, in the assay on KM-20L2, with HOP-18 and in the assay with DMS-114 was > 100 µM (inactive) in each case.
In the case of `CN(C)CCC1(C2=CCCC2)CC/C(=C\c2ccc(Cl)cc2)C1=O` (configuration not stated), the GI50 with XF498 is 6.11 µM (inactive); with M19-MEL it was 5.22 µM (inactive); with SNB-78, 9.59 µM (inactive); in the assay with LXFL 529, 8.95 µM (inactive); with DLD-1 it was 7.29 µM (inactive); with KM-20L2, 2.43 µM (inactive). The GI50 is 11.9 µM (inactive) in the assay on HOP-18, 8.69 µM (inactive) in the assay on RXF 631 and 6.27 µM (inactive) in the assay on DMS-114.
With `O=C(CC(O)(c1ccccc1)c1ccc(Cl)cc1)NC(=O)c1ccccc1O` (configuration not stated), the GI50 was 18.6 µM (inactive) in the assay with M19-MEL; 27.1 µM (inactive) with SNB-78; 4.35 µM (inactive) in the assay on LXFL 529; 11.8 µM (inactive) in the assay on DLD-1; 14.8 µM (inactive) in the assay on KM-20L2; 2.39 µM (inactive) in the assay with HOP-18. For the same molecule, the figures for the GI50 in the assay with RXF 631 and with DMS-114 were 15.6 µM (inactive) and 6.04 µM (inactive), respectively.
Regarding `Cn1nc(-c2cccc(-c3nn(C)/c(=N\CCO)s3)n2)s/c1=N/CCO`, the GI50 in the assay with M19-MEL was > 100 µM (inactive); in the assay on SNB-78, 41.6 µM (inactive); in the assay with LXFL 529 it was > 100 µM (inactive); in the assay with DLD-1, > 100 µM (inactive); with KM-20L2, > 100 µM (inactive); with HOP-18 it was > 100 µM (inactive). Besides, the GI50 in the assay with DMS-114 was > 100 µM (inactive).
